The values that follow come from PubChem BioAssay AID504703 (Southern Research Specialized Biocontainment Screening …, 2011).

The source made the active and inactive calls. No rule for the calls is given here. Bounds are passed on as bounds.

This assay concerns M. tuberculosis H37Rv growth inhibition with meropenem. As to the kind of experiment: M. tuberculosis growth inhibition, H37Rv, set 2, dose response (AID 504703).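 Also: growth ran 7 days at 37 °C then overnight with Alamar Blue before reading.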
Setting [1] is: M. tuberculosis H37Rv growth inhibition, measured here: IC90 without meropenem.

In the case of `CCC(CC)c1nnc(NC(=O)c2ccc(N3CCCCC3)c([N+](=O)[O-])c2)s1`, the IC50 (M. tuberculosis H37Rv growth inhibition, measured here: IC50 without meropenem) was more than 25 µM. Also, under setting [1], the IC90 is more than 25 µM.
As to `COc1ccc2oc(C(=O)Nc3nc4ccccc4[nH]3)c(C)c2c1`, the IC50 was 10.5 µM (inactive). The compound further displayed an IC90 under setting [1] of more than 25 µM. The same compound registered an IC90 (measured here: IC90 with meropenem) of more than 25 µM.

In general, IC50 refers to the point on the concentration scale where inhibition reaches its midpoint. By IC90 is commonly meant the concentration at which the effect reaches the 90% level.
